From ChEMBL document CHEMBL5136982, “Structure-Based Design of Potent, Selective, and Orally Bioavailable VPS34 Kinase Inhibitors” (J Med Chem, 2022)

Key:
[1] = Microsomal stability in human liver microsome assessed as clearance at 1.0 uM preincubated for 5 mins followed by NADPH addition measured upto 60 mins by LC-MS/MS analysis; assay type: ADME; conditions: liver microsomes, time < 65 min
[2] = Microsomal stability in rat liver microsome assessed as clearance at 1.0 uM preincubated for 5 mins followed by NADPH addition measured upto 60 mins by LC-MS/MS analysis; assay type: ADME; conditions: liver microsomes, time < 65 min
[3] = Lipophilicity, logD of compound at pH 7.4 by shake flask method; assay type: physicochemical; conditions: buffer
[4] = Oral bioavailability in Sprague-Dawley rat at 2 mg/kg measured upto 8 hrs by LC-MS/MS analysis; assay type: ADME, organism-based; conditions: in vivo
[5] = Unbound clearance in Sprague-Dawley rat at 0.5 mg/kg, iv measured upto 8 hrs by LC-MS/MS analysis; assay type: ADME, organism-based; conditions: in vivo
[6] = Half life in Sprague-Dawley rat at 2 mg/kg, po measured upto 8 hrs by LC-MS/MS analysis; assay type: ADME, organism-based; conditions: in vivo
[7] = Volume of distribution at steady state in Sprague-Dawley rat at […] measured upto 8 hrs by LC-MS/MS analysis; assay type: ADME, organism-based; conditions: in vivo
[8] = Plasma clearance in Sprague-Dawley rat at 0.5 mg/kg, iv measured upto 8 hrs by LC-MS/MS analysis; assay type: ADME, organism-based
[9] = AUC in Sprague-Dawley rat at 0.5 mg/kg, iv measured upto 8 hrs by LC-MS/MS analysis; assay type: ADME, organism-based; parameters: dose 0.5 mg/kg, time < 8 hrs, route iv; conditions: in vivo

| CLhep predicted at 1 µM [1] | CLhep predicted at 1 µM [2] | logD [3] | bioavailability [4] | CL free [5] | half-life [6] | Vdss [7] | clearance [8] | AUC at 8 h [9] | SMILES |
| --- | --- | --- | --- | --- | --- | --- | --- | --- | --- |
| < 3.9 mL/min/kg | < 6.1 mL/min/kg | 1.5 |  |  |  |  |  |  | C[C@@H]1COCCN1c1cc2n(n1)[C@H](C1CC1)C(C)(C)NC2=O |
| < 3.9 mL/min/kg | 12 mL/min/kg | 1.2 | 68% | 19 mL/min/kg |  |  |  |  | CC(C)[C@@H]1CNC(=O)c2cc(N3CCOC[C@H]3C)nn21 |
| < 3.9 mL/min/kg | 23 mL/min/kg | 1.5 |  |  |  |  |  |  | C[C@@H]1COCCN1c1cc2n(n1)[C@H](C1CCC1)CNC2=O |
| < 3.9 mL/min/kg | 8.5 mL/min/kg | 0.8 |  |  |  |  |  |  | C[C@@H]1COCCN1c1cc2n(n1)[C@H](C(F)(F)F)CNC2=O |
| 11 mL/min/kg | 25 mL/min/kg | 2.5 |  |  |  |  |  |  | Cc1cnc(NC(=O)C2CC2)cc1-c1cc2n(n1)[C@H](C(C)C)CNC2=O |
| < 3.9 mL/min/kg | 11 mL/min/kg | 1.6 |  |  |  |  |  |  | C[C@@H]1COCCN1c1cc2n(n1)[C@H](C1CC1)C1(CC1)NC2=O |
| < 3.9 mL/min/kg | < 6.1 mL/min/kg | 1.7 |  |  |  |  |  |  | C[C@@H]1COCCN1c1cc2n(n1)[C@H](C1CC1)[C@H](C1CC1)NC2=O |
| < 3.9 mL/min/kg | < 6.1 mL/min/kg | 1.1 |  |  |  |  |  |  | C[C@@H]1COCCN1c1cc2n(n1)C[C@H](C(F)(F)F)NC2=O |
| < 3.9 mL/min/kg | < 6.1 mL/min/kg | 1 | 61% |  | 1.4 h | 0.83 L/kg | 7.8 mL/min/kg | 4 µM·h | C[C@@H]1COCCN1c1cc2n(n1)[C@@H]1CCC[C@@H]1NC2=O |

Second part, the compound before the results:

| SMILES | CLhep predicted at 1 µM [1] | CLhep predicted at 1 µM [2] | logD [3] | bioavailability [4] | CL free [5] | half-life [6] | Vdss [7] | clearance [8] | AUC at 8 h [9] |
| --- | --- | --- | --- | --- | --- | --- | --- | --- | --- |
| O=C(Nc1cc(-n2cnc3ccccc32)ccn1)C1CC1 | 19 mL/min/kg | 34 mL/min/kg | 2.8 |  |  |  |  |  |  |
| CC(C)[C@@H]1CNC(=O)c2cc(N3CCOCC3)nn21 | < 3.9 mL/min/kg | < 6.1 mL/min/kg | 0.7 |  |  |  |  |  |  |
| CC(C)[C@@H]1CNC(=O)c2cc(-c3ccnc(NC(=O)C4CC4)c3)nn21 | < 3.9 mL/min/kg | 22 mL/min/kg | 2.4 |  |  |  |  |  |  |
| C[C@@H]1COCCN1c1cc2n(n1)[C@H](C(C)(C)C)CNC2=O | 4.7 mL/min/kg | 24 mL/min/kg | 1.4 |  |  |  |  |  |  |
| NC(=O)c1ccccc1Nc1ccnc(NC(=O)C2CC2)c1 | 5 mL/min/kg | 15 mL/min/kg | 1.8 |  |  |  |  |  |  |
| O=C(Nc1cc(-c2ccn3ccnc3c2)ccn1)C1CC1 | 17 mL/min/kg | 40 mL/min/kg | 2.1 |  |  |  |  |  |  |
| O=C(Nc1cc2cc(-c3nncn3-c3ccccc3Cl)ccc2cn1)C1CC1F (configuration not stated) | 12 mL/min/kg | 7.2 mL/min/kg | 3.1 |  |  |  |  |  |  |
| C[C@@H]1CNC(=O)c2cc(-c3ccnc(NC(=O)C4CC4)c3)nn21 | < 3.9 mL/min/kg | < 6.1 mL/min/kg | 1.7 |  |  |  |  |  |  |
| C[C@@H]1COCCN1c1cc2n(n1)[C@H](C1CC1)CNC2=O | < 3.9 mL/min/kg | 11 mL/min/kg | 1 |  |  |  |  |  |  |
| C[C@@H]1COCCN1c1cc2n(n1)[C@H](C1CCCC1)CNC2=O | 9.1 mL/min/kg | 28 mL/min/kg | 1.6 |  |  |  |  |  |  |
| Cn1ccc(-c2ccnc(NC(=O)C3CC3)c2)cc1=O | 6.4 mL/min/kg | < 6.1 mL/min/kg | 1.3 |  |  |  |  |  |  |
| C[C@@H]1NC(=O)c2cc(N3CCOC[C@H]3C)nn2[C@@H]1C1CC1 | < 3.9 mL/min/kg | 7.8 mL/min/kg | 1.3 |  |  |  |  |  |  |
| C[C@@H]1COCCN1c1cc2n(n1)C(C(C)(C)O)CNC2=O (single isomer, unassigned) | < 3.9 mL/min/kg | < 6.1 mL/min/kg |  |  |  |  |  |  |  |
